System: ECHCG
Assay: Example VI in-water applied ternary mixtures, greenhouse, transplanted paddy rice weeds
Type: in vivo, Echinochloa crus-galli (L.) Beauv.
Summary of the method: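 Compound A (SC, acid-equivalent basis) alone or with cyhalofop-R-butyl or metamifop plus a third herbicide, injected into paddy water of greenhouse-grown transplanted rice and weeds at 1st–4th leaf stage (~29/26 °C). Visual injury scored 0–100% after ~3 weeks vs untreated; expected mixture effects by Colby's equation.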

`CCCCOC(=O)[C@@H](C)Oc1ccc(Oc2ccc(C#N)cc2F)cc1` [Cyhalofop-butyl, butyl(2R)-2-[4-(4-cyano-2-fluorophenoxy)phenoxy]propanoate, reference compound] was tested, and the “Visual Weed Control (%) - 21 DAA ECHCG Obs” value (“Visual Weed Control (%)” for short) (22.5 gai/ha, first set) was 0%, the “Visual Weed Control (%)” value (22.5 gai/ha, first sub-table) was 0% and the “Visual Weed Control (%)” value (45 gai/ha) was 30%. For the same compound, the “Visual Weed Control (%)” value (45 gai/ha, first set) was 3%, the “Visual Weed Control (%)” value (45 gai/ha, first sub-table) was 3% and the “Visual Weed Control (%)” value (45 gai/ha, second set) was 30%. For the same compound, the “Visual Weed Control (%)” value (45 gai/ha, second sub-table) was 30%, the “Visual Weed Control (%)” value (Table 67, 45 gai/ha, 21 DAA) was 30% and the “Visual Weed Control (%)” value (Table 68, 45 gai/ha, 21 DAA) was 30%.
For `COc1c(Cl)ccc(-c2nc(C(=O)OCc3ccccc3)c(Cl)c(N)c2F)c1F` [Compound A Benzyl Ester, benzyl ester of 4-amino-3-chloro-5-fluoro-6-(4-chloro-2-fluoro-3-methoxy-phenyl)pyridine-2-carboxylic acid], the “Visual Weed Control (%)” value (1.09 gae/ha, first set) was 0%, the “Visual Weed Control (%)” value (1.09 gae/ha, first sub-table) was 0% and the “Visual Weed Control (%)” value (2.19 gae/ha, first set) was 7%. For the same compound, the “Visual Weed Control (%)” value (2.19 gae/ha, first sub-table) was 7%, the “Visual Weed Control (%)” value (4 gae/ha) was 25% and the “Visual Weed Control (%)” value (4 gae/ha, second set) was 25%. The “Visual Weed Control (%)” value (4 gae/ha, second sub-table) was 25%, the “Visual Weed Control (%)” value (8 gae/ha) was 45% and the “Visual Weed Control (%)” value (8 gae/ha, second set) was 45%. For the same compound, the “Visual Weed Control (%)” value (8 gae/ha, second sub-table) was 45%, the “Visual Weed Control (%)” value (16 gae/ha) was 99% and the “Visual Weed Control (%)” value (16 gae/ha, second set) was 99%. The “Visual Weed Control (%)” value (16 gae/ha, second sub-table) was 99%, the “Visual Weed Control (%)” value (Table 67, 4 gae/ha, 21 DAA) was 25% and the “Visual Weed Control (%)” value (Table 68, 4 gae/ha, 21 DAA) was 25%. For the same compound, the “Visual Weed Control (%)” value (Table 68, 8 gae/ha, 21 DAA) was 45% and the “Visual Weed Control (%)” value (Table 68, 16 gae/ha, 21 DAA) was 99%.

Reference: patent US9232796B2, “Herbicidal compositions comprising 4-amino-3-chloro-5-fluoro-6-(4-chloro-2-fluoro-3-methoxyphenyl) pyridine-2-carboxylic acid or a derivative thereof and acetyl-CoA carboxylase (ACCase) inhibitors” (DOW AGROSCIENCES LLC, priority 2012, dated 2016)
